Experiments:
purple nutsedge = test: Test B pre/postemergence purple nutsedge; format: in vivo, Cyperus rotundus
Summary of the method: (§1)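 Test chemicals in a non-phytotoxic solvent mixture with surfactant were sprayed preemergence onto planted seeds and postemergence onto plants 2 to 18 cm tall (1- to 4-leaf stage). After twelve to sixteen days in a greenhouse, injury was visually rated against untreated controls from 0 (no effect) to 10 (complete control).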

corn = test: Test B pre/postemergence corn; format: in vivo, Zea mays
Summary of the method: as §1

wheat = test: Test B pre/postemergence wheat; format: in vivo, Triticum aestivum
Summary of the method: as §1

morningglory = test: Test B pre/postemergence morningglory; format: in vivo, Ipomoea hederacea
Summary of the method: as §1

duck salad = test: Test B flood test duck salad; format: in vivo, Heteranthera limosa; details: Rate 125 g/ha; Postemergence section (flood test species); scale 0 to 10, 0 no effect, 10 complete control
Method: At the same time, these crop and weed species were also treated with postemergence applications of test chemicals formulated in the same manner. Plants ranged in height from 2 to 18 cm (1- to 4-leaf stage) for postemergence treatments. Plant species in the flood test consisted of rice (Oryza sativa), smallflower flatsedge (Cyperus difformis), duck salad (Heteranthera limosa) and bamyardgrass (Echinochloa crus-galli) grown to the 2-leaf stage for testing. Treated plants and controls were maintained in a greenhouse for twelve to sixteen days, after which all species were compared to controls and visually evaluated. Plant response ratings, summarized in Table B, are based on a scale of 0 to 10 where 0 is no effect and 10 is complete control. A dash (−) response means no test result.

bedstraw = test: Test B pre/postemergence bedstraw; format: in vivo, Galium aparine
Summary of the method: as §1

rape = test: Test B pre/postemergence rape; format: in vivo, Brassica napus
Summary of the method: as §1

surinam grass = test: Test B pre/postemergence surinam grass; format: in vivo, Brachiaria decumbens
Summary of the method: as §1

soybean = test: Test B pre/postemergence soybean; format: in vivo, Glycine max
Summary of the method: as §1

wild oat = test: Test B pre/postemergence wild oat; format: in vivo, Avena fatua
Summary of the method: as §1

blackgrass = test: Test B pre/postemergence blackgrass; format: in vivo, Alopecurus myosuroides
Summary of the method: as §1

pigweed = test: Test B pre/postemergence pigweed; format: in vivo, Amaranthus retroflexus
Summary of the method: as §1

giant foxtail = test: Test B pre/postemergence giant foxtail; format: in vivo, Setaria faberii
Summary of the method: as §1

sugar beet = test: Test B pre/postemergence sugar beet; format: in vivo, Beta vulgaris
Summary of the method: as §1

velvetleaf = test: Test B pre/postemergence velvetleaf; format: in vivo, Abutilon theophrasti
Summary of the method: as §1

crabgrass = test: Test B pre/postemergence crabgrass; format: in vivo, Digitaria sanguinalis
Summary of the method: as §1

cocklebur = test: Test B pre/postemergence cocklebur; format: in vivo, Xanthium strumarium; details: for Cocklebur plant response rating: Postemergence; for Plant response rating, Cocklebur: Preemergence
Summary of the method: as §1

[1] = Postemergence, Rate 62 g/ha, scale 0 to 10, 0 is no effect, 10 is complete control
[2] = Postemergence, Rate 250 g/ha, scale 0 to 10, 0 no effect, 10 complete control
[3] = Preemergence, Rate 62 g/ha, scale 0 to 10, 0 is no effect, 10 is complete control
[4] = Preemergence, Rate 125 g/ha, scale 0 to 10 (0 no effect, 10 complete control)
[5] = Preemergence, Rate 250 g/ha, scale of 0 to 10 where 0 is no effect and 10 is complete control
[6] = Preemergence, Rate 500 g/ha, scale 0 (no effect) to 10 (complete control)
[7] = Rate 125 g/ha, Postemergence, scale 0 to 10, 0 no effect, 10 complete control
[8] = Rate 500 g/ha, Postemergence, 0 to 10 scale (0 no effect, 10 complete control)
[9] = Rate 62 g/ha, scale 0 to 10, 0 is no effect, 10 is complete control

## Cc1ccccc1-n1c(=O)on(C(=O)N(c2ccc(F)cc2)C2CC2)c1=O [Compound 37]
Purple nutsedge; [1]
  Nutsedge plant response rating: 0
Purple nutsedge; [2]
  Nutsedge plant response rating: 0
Purple nutsedge; [3]
  Plant response rating, Nutsedge: 0
Purple nutsedge; [4]
  Plant response rating, Nutsedge: 0
Purple nutsedge; [5]
  Plant response rating, Nutsedge: 0
Purple nutsedge; [6]
  Nutsedge plant response rating: 0
Purple nutsedge; [7]
  Nutsedge plant response rating: 0
corn; [1]
  Corn plant response rating: 0
corn; [2]
  Corn plant response rating: 0
corn; [3]
  Plant response rating, Corn: 0
corn; [4]
  Plant response rating, Corn: 0
corn; [5]
  Plant response rating, Corn: 0
corn; [6]
  Corn plant response rating: 0
corn; [7]
  Corn plant response rating: 0
corn; [8]
  Corn plant response rating: 0
wheat; [1]
  Wheat plant response rating: 0
wheat; [2]
  Wheat plant response rating: 0
wheat; [3]
  Plant response rating, Wheat: 0
wheat; [4]
  Plant response rating, Wheat: 0
wheat; [5]
  Plant response rating, Wheat: 0
wheat; [6]
  Wheat plant response rating: 0
wheat; [7]
  Wheat plant response rating: 0
morningglory; [1]
  Morningglory plant response rating: 0
morningglory; [2]
  Morningglory plant response rating: 0
morningglory; [3]
  Plant response rating, Morningglory: 0
morningglory; [4]
  Plant response rating, Morningglory: 0
morningglory; [5]
  Plant response rating, Morningglory: 0
morningglory; [6]
  Morningglory plant response rating: 0
morningglory; [7]
  Morningglory plant response rating: 0
morningglory; [8]
  Morningglory plant response rating: 1
Duck salad
  Ducksalad plant response rating: 0
bedstraw; [1]
  Bedstraw plant response rating: 0
bedstraw; [2]
  Bedstraw plant response rating: 0
bedstraw; [3]
  Plant response rating, Bedstraw: 0
bedstraw; [4]
  Plant response rating, Bedstraw: 0
bedstraw; [5]
  Plant response rating, Bedstraw: 0
bedstraw; [6]
  Bedstraw plant response rating: 0
bedstraw; [7]
  Bedstraw plant response rating: 0
bedstraw; [8]
  Bedstraw plant response rating: 0
rape; [1]
  Rape plant response rating: 0
rape; [2]
  Rape plant response rating: 0
rape; [3]
  Plant response rating, Rape: 0
rape; [4]
  Plant response rating, Rape: 0
rape; [5]
  Plant response rating, Rape: 0
rape; [6]
  Rape plant response rating: 0
rape; [7]
  Rape plant response rating: 0
rape; [8]
  Rape plant response rating: 0
Surinam grass; [1]
  B. signalgrass plant response rating: 0
Surinam grass; [2]
  B. signalgrass plant response rating: 0
Surinam grass; [3]
  Plant response rating, B. signalgrass: 0
Surinam grass; [4]
  Plant response rating, B. signalgrass: 0
Surinam grass; [5]
  Plant response rating, B. signalgrass: 0
Surinam grass; [6]
  B. signalgrass plant response rating: 0
Surinam grass; [7]
  B. signalgrass plant response rating: 0
Surinam grass; [8]
  B. signalgrass plant response rating: 0
soybean; [1]
  Soybean plant response rating: 0
soybean; [2]
  Soybean plant response rating: 0
soybean; [3]
  Plant response rating, Soybean: 0
soybean; [4]
  Plant response rating, Soybean: 0
soybean; [5]
  Plant response rating, Soybean: 0
soybean; [6]
  Soybean plant response rating: 0
soybean; [7]
  Soybean plant response rating: 0
Wild oat; [1]
  Wild oats plant response rating: 0
Wild oat; [2]
  Wild oats plant response rating: 0
Wild oat; [4]
  Plant response rating, Wild oats: 0
Wild oat; [5]
  Plant response rating, Wild oats: 0
Wild oat; [6]
  Wild oats plant response rating: 0
Wild oat; [7]
  Wild oats plant response rating: 0
blackgrass; [1]
  Blackgrass plant response rating: 0
blackgrass; [2]
  Blackgrass plant response rating: 0
blackgrass; [3]
  Plant response rating, Blackgrass: 0
blackgrass; [4]
  Plant response rating, Blackgrass: 0
blackgrass; [5]
  Plant response rating, Blackgrass: 0
blackgrass; [6]
  Blackgrass plant response rating: 0
blackgrass; [7]
  Blackgrass plant response rating: 0
blackgrass; [8]
  Blackgrass plant response rating: 0
pigweed; [1]
  Redroot pigweed plant response rating: 0
pigweed; [2]
  Redroot pigweed plant response rating: 0
pigweed; [3]
  Plant response rating, Redroot pigweed: 0
pigweed; [4]
  Plant response rating, Redroot pigweed: 0
pigweed; [5]
  Plant response rating, Redroot pigweed: 0
pigweed; [6]
  Redroot pigweed plant response rating: 0
pigweed; [7]
  Redroot pigweed plant response rating: 0
pigweed; [8]
  Redroot pigweed plant response rating: 0
Giant foxtail; [1]
  Giant foxtail plant response rating: 0
Giant foxtail; [2]
  Giant foxtail plant response rating: 0
Giant foxtail; [3]
  Plant response rating, Giant foxtail: 0
Giant foxtail; [4]
  Plant response rating, Giant foxtail: 0
Giant foxtail; [5]
  Plant response rating, Giant foxtail: 2
Giant foxtail; [6]
  Giant foxtail plant response rating: 3
Giant foxtail; [7]
  Giant foxtail plant response rating: 0
Giant foxtail; [8]
  Giant foxtail plant response rating: 0
Sugar beet; [1]
  Sugarbeets plant response rating: 0
Sugar beet; [2]
  Sugarbeets plant response rating: 0
Sugar beet; [3]
  Plant response rating, Sugarbeets: 0
Sugar beet; [4]
  Plant response rating, Sugarbeets: 0
Sugar beet; [5]
  Plant response rating, Sugarbeets: 0
Sugar beet; [6]
  Sugarbeets plant response rating: 0
Sugar beet; [7]
  Sugarbeets plant response rating: 0
velvetleaf; [1]
  Velvetleaf plant response rating: 0
velvetleaf; [2]
  Velvetleaf plant response rating: 0
velvetleaf; [3]
  Plant response rating, Velvetleaf: 0
velvetleaf; [4]
  Plant response rating, Velvetleaf: 0
velvetleaf; [5]
  Plant response rating, Velvetleaf: 0
velvetleaf; [6]
  Velvetleaf plant response rating: 0
velvetleaf; [7]
  Velvetleaf plant response rating: 0
crabgrass; [1]
  Crabgrass plant response rating: 0
crabgrass; [2]
  Crabgrass plant response rating: 0
crabgrass; [3]
  Plant response rating, Crabgrass: 0
crabgrass; [4]
  Plant response rating, Crabgrass: 0
crabgrass; [5]
  Plant response rating, Crabgrass: 3
crabgrass; [6]
  Crabgrass plant response rating: 5
crabgrass; [7]
  Crabgrass plant response rating: 0
crabgrass; [8]
  Crabgrass plant response rating: 3
cocklebur; [9]
  Cocklebur plant response rating: 0
  Plant response rating, Cocklebur: 0
cocklebur; Rate 250 g/ha, scale 0 to 10, 0 no effect, 10 complete control
  Cocklebur plant response rating: 0
cocklebur; Rate 125 g/ha, scale 0 to 10 (0 no effect, 10 complete control)
  Plant response rating, Cocklebur: 0
cocklebur; Rate 250 g/ha, scale of 0 to 10 where 0 is no effect and 10 is complete control
  Plant response rating, Cocklebur: 0
cocklebur; Rate 125 g/ha, scale 0 to 10, 0 no effect, 10 complete control
  Cocklebur plant response rating: 0
cocklebur; Rate 500 g/ha, 0 to 10 scale (0 no effect, 10 complete control)
  Cocklebur plant response rating: 1

From patent US6737383B1, “Herbicidal oxadiazolidines” (priority 1999, dated 2004)
